Where “and” joins values, the source holds several entries; their conditions need not be identical. Identical values can stand only once. Toxic doses and inconclusive results are not listed. Cut-off read from the data, not from the text of the source: active = T/C of 150% or more; inactive = T/C below 125%.
Tested on: L1210 leukemia ip in BDF1 mice, survival T/C
Experiment: NCI In Vivo Anticancer Drug Screen. Data for tumor model L1210 Leukemia (intraperitoneal) in B6D2F1 (BDF1) mice
Conditions: endpoint: mean survival time, higher = longer survival
Procedure, shortened: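 Survival endpoint. Drug-treated group vs vehicle group, expressed as T divided by C. Tumor passaged by transplantation.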

[1] = dose: 100.0 mg/kg/injection, schedule: Q01DX001 (ip), vehicle: saline
[2] = dose: 100.0 mg/kg/injection, schedule: Q01DX009 (ip), vehicle: Klucel (hydroxypropylcellulose) (HPC)
[3] = dose: 200.0 mg/kg/injection, schedule: Q01DX001 (ip), vehicle: saline
[4] = dose: 200.0 mg/kg/injection, schedule: Q01DX009 (ip), vehicle: Klucel (hydroxypropylcellulose) (HPC)
[5] = dose: 400.0 mg/kg/injection, schedule: Q01DX001 (ip), vehicle: saline
[6] = dose: 100.0 mg/kg/injection, schedule: Q01DX009 (ip), vehicle: saline
[7] = dose: 200.0 mg/kg/injection, schedule: Q01DX009 (ip), vehicle: saline

Measured: T/C

CN=NNc1ccc(C)cc1
inactive: dose: 25.0 mg/kg/injection, schedule: Q01DX009 (ip), vehicle: Klucel (hydroxypropylcellulose) (HPC) 89 % of control | dose: 50.0 mg/kg/injection, schedule: Q01DX001 (ip), vehicle: saline 108 % of control | dose: 50.0 mg/kg/injection, schedule: Q01DX009 (ip), vehicle: Klucel (hydroxypropylcellulose) (HPC) 105 % of control and 117 % of control | [1] 108 % of control | [2] 102 % of control and 120 % of control | dose: 150.0 mg/kg/injection, schedule: Q01DX009 (ip), vehicle: Klucel (hydroxypropylcellulose) (HPC) 113 % of control | [3] 116 % of control | [4] 99 % of control and 91 % of control

O=c1[nH]cnc2nc(/N=N/SCCO)[nH]c12
inactive: dose: 44.4 mg/kg/injection, schedule: Q01DX Z (ip), vehicle: methylcellulose (MC) 101 % of control | dose: 66.6 mg/kg/injection, schedule: Q01DX Z (ip), vehicle: methylcellulose (MC) 108 % of control | dose: 100.0 mg/kg/injection, schedule: Q01DX Z (ip), vehicle: methylcellulose (MC) 116 % of control | dose: 150.0 mg/kg/injection, schedule: Q01DX Z (ip), vehicle: methylcellulose (MC) 121 % of control

CC(=O)C(Sc1ccccc1[N+](=O)[O-])C(C)=O.[Co]
inactive: dose: 50.0 mg/kg/injection, schedule: Q01DX001 (ip), vehicle: other 92 % of control | dose: 100.0 mg/kg/injection, schedule: Q01DX001 (ip), vehicle: other 92 % of control | dose: 200.0 mg/kg/injection, schedule: Q01DX001 (ip), vehicle: other 92 % of control | dose: 400.0 mg/kg/injection, schedule: Q01DX001 (ip), vehicle: other 100 % of control

COc1cc2c(cc1OC)C(Cc1cc3c(cc1[N+](=O)[O-])OCO3)=NCC2
inactive: [1] 96 % of control | [3] 96 % of control | [5] 93 % of control

C(=C\[P+](Cc1ccccc1)(c1ccccc1)c1ccccc1)/c1ccccc1
inactive: dose: 12.5 mg/kg/injection, schedule: Q04DX003 (ip), vehicle: saline with Tween-80 100 % of control | dose: 25.0 mg/kg/injection, schedule: Q04DX003 (ip), vehicle: saline with Tween-80 92 % of control

NC(Cc1ccc(OC2CCCC2)c(N(CCCl)CCCl)c1)C(=O)O (configuration not stated)
active: dose: 8.5 mg/kg/injection, schedule: Q01DX009 (ip), vehicle: carboxymethylcellulose (CMC) 155 % of control | dose: 13.0 mg/kg/injection, schedule: Q01DX009 (ip), vehicle: carboxymethylcellulose (CMC) 152 % of control | dose: 20.0 mg/kg/injection, schedule: Q01DX009 (ip), vehicle: carboxymethylcellulose (CMC) 215 % of control | dose: 30.0 mg/kg/injection, schedule: Q01DX001 (ip), vehicle: carboxymethylcellulose (CMC) 202 % of control
inactive: dose: 0.6 mg/kg/injection, schedule: Q01DX009 (ip), vehicle: carboxymethylcellulose (CMC) 122 % of control | dose: 3.8 mg/kg/injection, schedule: Q01DX009 (ip), vehicle: saline 102 % of control | dose: 4.4 mg/kg/injection, schedule: Q01DX001 (ip), vehicle: carboxymethylcellulose (CMC) 107 % of control | dose: 5.7 mg/kg/injection, schedule: Q01DX009 (ip), vehicle: saline 103 % of control | dose: 6.6 mg/kg/injection, schedule: Q01DX001 (ip), vehicle: carboxymethylcellulose (CMC) 111 % of control | dose: 8.5 mg/kg/injection, schedule: Q01DX001 (ip), vehicle: carboxymethylcellulose (CMC) 111 % of control | dose: 8.5 mg/kg/injection, schedule: Q01DX009 (ip), vehicle: saline 110 % of control | dose: 8.8 mg/kg/injection, schedule: Q01DX009 (ip), vehicle: carboxymethylcellulose (CMC) 115 % of control | dose: 10.0 mg/kg/injection, schedule: Q01DX001 (ip), vehicle: carboxymethylcellulose (CMC) 120 % of control | dose: 13.0 mg/kg/injection, schedule: Q01DX001 (ip), vehicle: carboxymethylcellulose (CMC) 114 % of control | dose: 13.3 mg/kg/injection, schedule: Q01DX009 (ip), vehicle: carboxymethylcellulose (CMC) 88 % of control | dose: 20.0 mg/kg/injection, schedule: Q01DX009 (ip), vehicle: saline 119 % of control | dose: 30.0 mg/kg/injection, schedule: Q01DX009 (ip), vehicle: saline 98 % of control

O=C(N/N=C/c1cc(Cl)ccc1O)C(O)(c1ccccc1)c1ccccc1
inactive: dose: 100.0 mg/kg/injection, schedule: Q01DX001 (ip), vehicle: carboxymethylcellulose (CMC) 106 % of control | dose: 200.0 mg/kg/injection, schedule: Q01DX001 (ip), vehicle: carboxymethylcellulose (CMC) 97 % of control | dose: 400.0 mg/kg/injection, schedule: Q01DX001 (ip), vehicle: carboxymethylcellulose (CMC) 101 % of control

CCOc1cc(/C=N/NC(=O)COCC(=O)N/N=C/c2ccc(O)c(OCC)c2)ccc1O
inactive: [2] 88 % of control | [4] 92 % of control | dose: 400.0 mg/kg/injection, schedule: Q01DX009 (ip), vehicle: Klucel (hydroxypropylcellulose) (HPC) 97 % of control

CC(C)(C)OC(=O)C1OC1(C)c1ccccc1 (configuration not stated)
inactive: dose: 75.0 mg/kg/injection, schedule: Q01DX001 (ip), vehicle: other 106 % of control | dose: 150.0 mg/kg/injection, schedule: Q01DX001 (ip), vehicle: other 107 % of control | dose: 300.0 mg/kg/injection, schedule: Q01DX001 (ip), vehicle: other 98 % of control

CCOC(=O)N1c2ccc(Cl)cc2C=CC1C#N (configuration not stated)
inactive: dose: 100.0 mg/kg/injection, schedule: Q01DX009 (ip), vehicle: gum acacia 91 % of control | dose: 100.0 mg/kg/injection, schedule: Q04DX003 (ip), vehicle: gum acacia 103 % of control | dose: 200.0 mg/kg/injection, schedule: Q01DX009 (ip), vehicle: gum acacia 91 % of control | dose: 200.0 mg/kg/injection, schedule: Q04DX003 (ip), vehicle: gum acacia 97 % of control | dose: 400.0 mg/kg/injection, schedule: Q04DX003 (ip), vehicle: gum acacia 92 % of control

O=S(=O)(Nc1nccs1)c1ccc(N=Nc2ccc(O)c3ncccc23)cc1
inactive: [3] 102 % of control | [5] 101 % of control

O=C(O)C1C2/C=C/CCCCC21 (configuration not stated)
inactive: dose: 100.0 mg/kg/injection, schedule: Q04DX002 (ip), vehicle: other 104 % of control | dose: 200.0 mg/kg/injection, schedule: Q04DX002 (ip), vehicle: other 86 % of control | dose: 400.0 mg/kg/injection, schedule: Q04DX002 (ip), vehicle: other 93 % of control

Nc1ccn(CCCCc2ccccc2)c(=O)n1
inactive: dose: 100.0 mg/kg/injection, schedule: Q01DX001 (ip), vehicle: gum acacia 93 % of control | dose: 200.0 mg/kg/injection, schedule: Q01DX001 (ip), vehicle: gum acacia 95 % of control | dose: 400.0 mg/kg/injection, schedule: Q01DX001 (ip), vehicle: gum acacia 91 % of control

Nc1ncnc(N)c1N=O
inactive: dose: 50.0 mg/kg/injection, schedule: Q01DX009 (ip), vehicle: saline 107 % of control | [6] 91 % of control | [7] 101 % of control

C[n+]1ccc2ccccc2c1CCCc1nccc2ccccc12
inactive: dose: 6.25 mg/kg/injection, schedule: Q01DX009 (ip), vehicle: saline with Tween-80 111 % of control | dose: 6.25 mg/kg/injection, schedule: Q04DX003 (ip), vehicle: saline 97 % of control | dose: 12.5 mg/kg/injection, schedule: Q01DX009 (ip), vehicle: saline with Tween-80 117 % of control | dose: 12.5 mg/kg/injection, schedule: Q04DX003 (ip), vehicle: saline 100 % of control | dose: 25.0 mg/kg/injection, schedule: Q01DX009 (ip), vehicle: saline with Tween-80 112 % of control | dose: 25.0 mg/kg/injection, schedule: Q04DX003 (ip), vehicle: saline 114 % of control

COC(=O)/C=C1/Nc2cc(Cl)c(OC)cc2C(=O)NC1=O
inactive: dose: 75.0 mg/kg/injection, schedule: Q04DX003 (ip), vehicle: other 91 % of control | dose: 150.0 mg/kg/injection, schedule: Q04DX003 (ip), vehicle: other 91 % of control

CCN(CC)C(=O)CCC(=O)O
inactive: dose: 100.0 mg/kg/injection, schedule: Q04DX002 (ip), vehicle: saline 89 % of control | dose: 200.0 mg/kg/injection, schedule: Q04DX002 (ip), vehicle: saline 103 % of control | dose: 400.0 mg/kg/injection, schedule: Q04DX002 (ip), vehicle: saline 103 % of control

O=C1OC(=O)C2CCC12 (configuration not stated)
inactive: dose: 75.0 mg/kg/injection, schedule: Q01DX001 (ip), vehicle: saline 93 % of control | [6] 91 % of control | dose: 100.0 mg/kg/injection, schedule: Q04DX003 (ip), vehicle: saline 98 % of control | dose: 150.0 mg/kg/injection, schedule: Q01DX001 (ip), vehicle: saline 101 % of control | [7] 93 % of control | dose: 200.0 mg/kg/injection, schedule: Q04DX003 (ip), vehicle: saline 101 % of control | dose: 300.0 mg/kg/injection, schedule: Q01DX001 (ip), vehicle: saline 112 % of control | dose: 400.0 mg/kg/injection, schedule: Q04DX003 (ip), vehicle: saline 98 % of control

— PubChem BioAssay AID248 (DTP/NCI, 2004)
